Source: patent US12351653B1, “Pharmaceutical compositions comprising novel cyclic peptides” (LISATA THERAPEUTICS, INC., priority 2019, dated 2025)

Legend:
CA19-9 = experiment: Phase I trial (CEND-001): tumor biomarker CA19-9; format: in vivo, human; conditions: with nab-paclitaxel and gemcitabine
Procedure: (§1) Patients will first receive the intravenous infusion of nabpaclitaxel (125 mg/m^2 over 30 minutes (±3 minutes)).
(§2) Patients (n=31) who had measurable metastatic pancreatic cancer, no prior treatments for metastatic disease and an ECOG PS of 0 to 1 were included. Primary endpoints are safety and optimal biologic dose, secondary and exploratory endpoints included response rates, pharmacokinetics and biomarkers.
Of these, 23 patients had at least one on-treatment CA19-9 measurement.

[1] = system: metastatic pancreatic cancer; experiment: Phase I trial (CEND-001) of CEND-1 with gemcitabine and nab-paclitaxel: response and survival; format: in vivo, human
Procedure: as §1, §2

[2] = patients with elevated baseline CA19-9 and a postbaseline assessment (23)
[3] = with nab-paclitaxel and gemcitabine
[4] = with nab-paclitaxel and gemcitabine, RECIST 1.1, 29 evaluable patients

## Ac-Cys-Arg-Gly-Asp-Lys-Gly-Pro-Asp-Cys-NH2 (Cys & Cys Bridge) [CEND-1]
CA19-9; Cycle 5 Day 1, 20/22 patients
  Patients with a ≥50% reduction in CA19-9 from Baseline: 90.9%
CA19-9; [2]
  Patients with CA19-9 decrease from baseline of at least 20%: 96%
  Patients with CA19-9 decrease of at least 90% and/or CA19-9 levels normalized: 74%
[1]; with nab-paclitaxel 125 mg/m^2 and gemcitabine 1000 mg/m^2, investigator assessed RECIST 1.1, 29 evaluable patients
  Complete response: 3.4%
[1]; [3]
  Median time to progression: approximately 9.7 months
  Response rates relative to the benchmark trials: > 2 times
[1]; with nab-paclitaxel and gemcitabine, 16/29 patients
  Patients with progression: 55.2%
[1]; with nab-paclitaxel and gemcitabine, 17/29 patients (95% CI=38.9, 76.5)
  Confirmed objective responses (OR): 58.6%
[1]; [4]
  Partial response: 55%
  Progressive disease: 6.9%
  Stable disease: 34%
[1]; with nab-paclitaxel and gemcitabine, all evaluable patients (N=29)
  Overall response rate (ORR): 59%
[1]; with nab-paclitaxel and gemcitabine, at study closure
  Median (IQR) PFS: 9.7 months
[1]; with nab-paclitaxel and gemcitabine, evaluable patients (N=29)
  Overall disease control rate for 16 weeks: 79%
